# Legend:
# [1] = Drug recovery in bile duct-intact Sprague-Dawley rat assessed as radioactivity in feces during 0 to 24 hrs at 5 mg/kg, iv for 30 mins; assay type: ADME, organism-based; set-up: dose 5 mg/kg, dosed compound name [14C]LY2090314, route intravenous; settings: in vivo
# Canis familiaris [2] = experiment: Drug recovery in beagle dog cage at 5 mg/kg, iv administered for 30 mins during 0 to 24 hrs time interval by radio analysis; assay type: ADME, organism-based, Canis lupus familiaris; set-up: dose 5 mg/kg, dosed compound name [14C]LY2090314, route intravenous; settings: in vivo
# [3] = Plasma protein binding in cancer patient; assay type: ADME, cell-free; set-up: dosed compound name LY2090314; settings: human, read-out: PPB (converted)
# [4] = AUC (0 to infinity) in cancer patient at 40 mg for 60 mins treated 1/8 cycle/day; assay type: ADME, organism-based; set-up: dose 40 mg, time infinity, dosed compound name LY2090314; settings: human, plasma
# [5] = Tmax in cancer patient at 60 mg for 60 mins treated 1/8 cycle/day; assay type: ADME, organism-based; set-up: dosed compound name LY2090314; settings: human, in vivo
# [6] = Clearance in cancer patient at 10 mg for 60 mins treated 1/1 cycle/day; assay type: ADME, organism-based; set-up: dosed compound name LY2090314; settings: human, in vivo
# [7] = Drug recovery in Sprague-Dawley rat feces at 5 mg/kg, iv administered for 30 mins during 48 hrs time interval by radio analysis; assay type: ADME, organism-based; set-up: dose 5 mg/kg, dosed compound name [14C]LY2090314, route intravenous; settings: in vivo
# [8] = Drug recovery in bile duct-cannulated Sprague-Dawley rat assessed as radioactivity in bile during 0 to 24 hrs at 5 mg/kg, iv administered for 30 mins relative to dosed radioactivity; assay type: ADME, organism-based; set-up: dose 5 mg/kg, dosed compound name [14C]LY2090314, route intravenous; settings: in vivo
# Rattus norvegicus [9] = experiment: Drug recovery in Sprague-Dawley rat cage at 5 mg/kg, iv administered for 30 mins during 0 to 168 hrs time interval by radio analysis; assay type: ADME, organism-based; set-up: dose 5 mg/kg, dosed compound name [14C]LY2090314, route intravenous; settings: in vivo
# [10] = Drug recovery in bile duct-intact Sprague-Dawley rat assessed as radioactivity in bile during 0 to 24 hrs at 5 mg/kg, iv administered for 30 mins relative to dosed radioactivity; assay type: ADME, organism-based; set-up: dose 5 mg/kg, dosed compound name [14C]LY2090314, route intravenous; settings: in vivo
# Rattus norvegicus [11] = experiment: AUC (0 to infinity) in Sprague-Dawley rat assessed as total radioactivity at 5 mg/kg, iv administered for 30 mins; assay type: ADME, organism-based, Plasma; set-up: dose 5 mg/kg, dosed compound name [14C]LY2090314, route intravenous, time infinity; settings: in vivo, 0.5 h
# Canis familiaris [12] = experiment: Total drug recovery in beagle dog at 5 mg/kg, iv administered for 30 mins during 0 to 168 hrs time interval by radio analysis; assay type: ADME, organism-based, Canis lupus familiaris; set-up: dose 5 mg/kg, dosed compound name [14C]LY2090314, route intravenous; settings: in vivo
# Canis familiaris [13] = experiment: Total drug recovery in beagle dog at 5 mg/kg, iv administered for 30 mins during 48 hrs time interval by radio analysis; assay type: ADME, organism-based, Canis lupus familiaris; set-up: dose 5 mg/kg, dosed compound name [14C]LY2090314, route intravenous; settings: in vivo
# Plasma [14] = experiment: Drug recovery in beagle dog plasma assessed as radiochemical peak area at 5 mg/kg, iv administered for 30 mins after 2 hrs by radio analysis; assay type: ADME, organism-based, Canis lupus familiaris; set-up: dose 5 mg/kg, dosed compound name [14C]LY2090314, route intravenous; settings: in vivo
# [15] = Cmax in cancer patient at 120 mg for 60 mins treated 1/8 cycle/day; assay type: ADME, organism-based; set-up: dose 120 mg, dosed compound name LY2090314; settings: human, in vivo
# Rattus norvegicus [16] = experiment: Cmax in Sprague-Dawley rat assessed as total radioactivity at 5 mg/kg, iv administered for 30 mins; assay type: ADME, organism-based; set-up: dose 5 mg/kg, dosed compound name [14C]LY2090314, route intravenous; settings: in vivo, 0.5 h
# [17] = Volume of distribution at steady state in cancer patient at 80 mg for 60 mins treated 1/1 cycle/day; assay type: ADME, organism-based; set-up: dosed compound name LY2090314; settings: human, in vivo, read-out: Vdss
# [18] = Volume of distribution at steady state in cancer patient at 40 mg for 60 mins treated 1/8 cycle/day; assay type: ADME, organism-based; set-up: dosed compound name LY2090314; settings: human, in vivo, read-out: Vdss
# [19] = Tmax in beagle dog at 5 mg/kg, iv administered for 30 mins; assay type: ADME, organism-based, Canis lupus familiaris; set-up: dose 5 mg/kg, dosed compound name [14C]LY2090314, route intravenous; settings: in vivo
# Canis familiaris [20] = experiment: Drug recovery in beagle dog cage at 5 mg/kg, iv administered for 30 mins during 0 to 168 hrs time interval by radio analysis; assay type: ADME, organism-based, Canis lupus familiaris; set-up: dose 5 mg/kg, dosed compound name [14C]LY2090314, route intravenous; settings: in vivo
# [21] = Volume of distribution at steady state in cancer patient at 10 mg for 60 mins treated 1/1 cycle/day; assay type: ADME, organism-based; set-up: dosed compound name LY2090314; settings: human, in vivo, read-out: Vdss
# [22] = Drug recovery in Sprague-Dawley rat urine at 5 mg/kg, iv administered for 30 mins during 0 to 24 hrs time interval by radio analysis; assay type: ADME, organism-based; set-up: dose 5 mg/kg, dosed compound name [14C]LY2090314, route intravenous; settings: in vivo
# [23] = Drug recovery in Sprague-Dawley rat carcass at 5 mg/kg, iv administered for 30 mins during 0 to 168 hrs time interval by radio analysis; assay type: ADME, organism-based; set-up: dose 5 mg/kg, dosed compound name [14C]LY2090314, route intravenous; settings: in vivo
# Canis familiaris [24] = experiment: Volume of distribution at steady state in beagle dog assessed as total radioactivity at 5 mg/kg, iv administered for 30 mins; assay type: ADME, organism-based, Canis lupus familiaris; set-up: dose 5 mg/kg, dosed compound name [14C]LY2090314, route intravenous; settings: in vivo, 0.5 h
# [25] = Clearance in cancer patient at 120 mg for 60 mins treated 1/8 cycle/day; assay type: ADME, organism-based; set-up: dosed compound name LY2090314; settings: human, in vivo
# [26] = Drug recovery in bile duct-cannulated Sprague-Dawley rat bile at 5 mg/kg, iv administered for 30 mins during 0 to 168 hrs time interval by radio analysis; assay type: ADME, organism-based; set-up: dose 5 mg/kg, dosed compound name [14C]LY2090314, route intravenous; settings: in vivo
# [27] = Cmax in cancer patient at 20 mg for 60 mins treated 2/1 cycle/day; assay type: ADME, organism-based; set-up: dose 20 mg, dosed compound name LY2090314; settings: human, in vivo
# [28] = Clearance in cancer patient at 20 mg for 60 mins treated 1/1 cycle/day; assay type: ADME, organism-based; set-up: dosed compound name LY2090314; settings: human, in vivo
# [29] = Drug recovery in bile duct-intact Sprague-Dawley rat assessed as radioactivity in feces during 0 to 24 hrs at 5 mg/kg, iv administered for 30 mins relative to dosed radioactivity; assay type: ADME, organism-based; set-up: dose 5 mg/kg, dosed compound name [14C]LY2090314, route intravenous; settings: in vivo
# [30] = Clearance in beagle dog at 5 mg/kg, iv administered for 30 mins; assay type: ADME, organism-based, Canis lupus familiaris; set-up: dose 5 mg/kg, dosed compound name [14C]LY2090314, route intravenous; settings: in vivo
# [31] = AUC (0 to infinity) in cancer patient at 20 mg for 60 mins treated 1/1 cycle/day; assay type: ADME, organism-based; set-up: dose 20 mg, time infinity, dosed compound name LY2090314; settings: human, plasma
# Rattus norvegicus [32] = experiment: Total drug recovery in bile duct-cannulated Sprague-Dawley rat at 5 mg/kg, iv administered for 30 mins during 0 to 168 hrs time interval by radio analysis; assay type: ADME, organism-based; set-up: dose 5 mg/kg, dosed compound name [14C]LY2090314, route intravenous; settings: in vivo
# Plasma [33] = experiment: Drug metabolism in Bcrp knockout Sprague-Dawley rat plasma at 5 mg/kg, iv administered for 30 mins; assay type: ADME, organism-based; set-up: dose 5 mg/kg, dosed compound name LY2090314, route intravenous; settings: in vivo, 0.5 h
# [34] = Plasma protein binding in rat; assay type: ADME, cell-free; set-up: dosed compound name [14C]LY2090314; settings: read-out: PPB (converted)
# Plasma [35] = experiment: Drug metabolism in Mrp2 knockout Sprague-Dawley rat plasma at 5 mg/kg, iv administered for 30 mins; assay type: ADME, organism-based; set-up: dose 5 mg/kg, dosed compound name LY2090314, route intravenous; settings: in vivo, 0.5 h
# Plasma [36] = experiment: Plasma concentration in beagle dog at 5 mg/kg, iv administered for 30 mins; assay type: ADME, organism-based, Canis lupus familiaris; set-up: dose 5 mg/kg, dosed compound name [14C]LY2090314, route intravenous; settings: in vivo, 0.5 h
# [37] = Half life in cancer patient at 120 mg for 60 mins treated 1/8 cycle/day; assay type: ADME, organism-based; set-up: dosed compound name LY2090314; settings: human, in vivo
# [38] = Half life in cancer patient at 10 mg for 60 mins treated 1/1 cycle/day; assay type: ADME, organism-based; set-up: dosed compound name LY2090314; settings: human, in vivo
# Canis familiaris [39] = experiment: Elimination half life in beagle dog assessed as total radioactivity at 5 mg/kg, iv administered for 30 mins; assay type: ADME, organism-based, Canis lupus familiaris; set-up: dose 5 mg/kg, dosed compound name [14C]LY2090314, route intravenous; settings: in vivo, 0.5 h
# Rattus norvegicus [40] = experiment: Total drug recovery in Sprague-Dawley rat at 5 mg/kg, iv administered for 30 mins during 0 to 24 hrs time interval by radio analysis; assay type: ADME, organism-based; set-up: dose 5 mg/kg, dosed compound name [14C]LY2090314, route intravenous; settings: in vivo
# [41] = Drug metabolism in Bcrp knockout Sprague-Dawley rat urine at 5 mg/kg, iv administered for 30 mins; assay type: ADME, organism-based; set-up: dose 5 mg/kg, dosed compound name LY2090314, route intravenous; settings: in vivo, 0.5 h
# [42] = Cmax in beagle dog at 5 mg/kg, iv administered for 30 mins; assay type: ADME, organism-based, Canis lupus familiaris; set-up: dose 5 mg/kg, dosed compound name [14C]LY2090314, route intravenous; settings: in vivo
# [43] = Clearance in cancer patient at 60 mg for 60 mins treated 1/8 cycle/day; assay type: ADME, organism-based; set-up: dosed compound name LY2090314; settings: human, in vivo
# [44] = Drug metabolism in Mrp2 knockout Sprague-Dawley rat urine at 5 mg/kg, iv administered for 30 mins; assay type: ADME, organism-based; set-up: dose 5 mg/kg, dosed compound name LY2090314, route intravenous; settings: in vivo, 0.5 h
compound,measurement,setting,value
O=C1NC(=O)C(c2cnc3ccccn23)=C1c1cn2c3c(cc(F)cc13)CN(C(=O)N1CCCCC1)CC2 [LY-2090314],Radiolabel recovery,[1],2.43%
same,Radiolabel recovery,Canis familiaris [2],2.03%
same,fraction unbound,[3],0.03
same,AUC(0-inf),[4],938 ng·h/mL
same,Tmax,[5],55.2 min
same,clearance,[6],787 mL/min
same,Radiolabel recovery,[7],65.8%
same,Radiolabel recovery,[8],91.8%
same,Radiolabel recovery,Rattus norvegicus [9],0.14%
same,Radiolabel recovery,[10],1.8%
same,AUC,Rattus norvegicus [11],1790 ng·h/mL
same,Radiolabel recovery,Canis familiaris [12],93%
same,Radiolabel recovery,Canis familiaris [13],88%
same,Radiolabel recovery,Plasma [14],36.09%
same,Cmax,[15],768 ng/mL
same,Cmax,Rattus norvegicus [16],2080 ng/mL
same,Vd,[17],86.3 L
same,Vd,[18],64.1 L
same,Tmax,[19],30 min
same,Radiolabel recovery,Canis familiaris [20],3.22%
same,Vd,[21],89.7 L
same,Radiolabel recovery,[22],0.73%
same,Radiolabel recovery,[23],0.07%
same,Vdss,Canis familiaris [24],9840 mL/kg
same,clearance,[25],638 mL/min
same,Radiolabel recovery,[26],85.8%
same,Cmax,[27],271 ng/mL
same,clearance,[28],782 mL/min
same,Radiolabel recovery,[29],2.4%
same,clearance,[30],27.9 mL/min/kg
same,AUC(0-inf),[31],427 ng·h/mL
same,Radiolabel recovery,Rattus norvegicus [32],94.9%
same,Drug metabolism,Plasma [33],metabolite_not_detected
same,fraction unbound,[34],0.02
same,Drug metabolism,Plasma [35],metabolite_not_detected
same,Compound recovery,Plasma [36],21.4%
same,half-life,[37],183 min
same,half-life,[38],134 min
same,beta t1/2,Canis familiaris [39],73.6 h
same,Radiolabel recovery,Rattus norvegicus [40],92.6%
same,Drug metabolism,[41],metabolite_detected
same,Cmax,[42],5090 ng/mL
same,clearance,[43],633 mL/min
same,Drug metabolism,[44],metabolite_detected
